Assays:
Format in all cases: biochemical
Cathepsin S = Cathepsin S (Homo sapiens, UniProt P25774); assay: Cathepsin S inhibition assay, fluorogenic peptide substrate; conditions: Cathepsin S inhibition constant; pH5.5, 20 minutes preincubation at room temperature; read-out: Ki Cat. S
Procedure: (§1) The optimal substrate for cathepsin S, acetyl-histidine-proline-valine-lysine-amino carbamoyl coumarin, was identified from screening a combinatorial library of fluorogenic peptide substrates (Harris, J. L., B. J. Backes, et al. Proc Natl Acad Sci U S A 2000, 97(14), 7754-9). Kinetic measurements are performed in a total reaction volume of 30 μl in 384-well microtiter plates. Cathepsin S, at a final concentration of 0.3-3 nM (active site), is incubated with the compounds at twelve varying concentrations in a buffer containing 100 mM NaAc (pH5.5), 1 mM EDTA, 100 mM NaCl, 0.01% Brij-35 for 20 minutes at room temperature. Control reactions in the absence of inhibitor are performed in replicates of 24. The reactions are initiated by adding the substrate, acetyl-histidine-proline-valine-lysine-amino carbamoyl coumarin, to a final concentration of 50 μM. The rate of substrate hydrolysis is measured by monitoring the increase in fluorescence at an excitation wavelength of 380 nm and an emission wavelength of 450 nm that results from cleavage of the aniline bond in the substrate by the enzyme. The apparent inhibition constants for the compounds are determined from the enzyme progress curves (Kuzmic, P., K. C. Elrod, et al. Anal Biochem 2000, 286(1), 45-50) and are then used to calculate the inhibition constants for competitive inhibitors.

Cathepsin K = biological target: T1, Cathepsin K (Homo sapiens, UniProt P43235); assay: Cathepsin K inhibition assay, fluorogenic peptide substrate (selectivity for Cat. S over Cat. K); conditions: ratio of cathepsin K inhibition constant to cathepsin S inhibition constant
T1 sequence (P43235 115-329): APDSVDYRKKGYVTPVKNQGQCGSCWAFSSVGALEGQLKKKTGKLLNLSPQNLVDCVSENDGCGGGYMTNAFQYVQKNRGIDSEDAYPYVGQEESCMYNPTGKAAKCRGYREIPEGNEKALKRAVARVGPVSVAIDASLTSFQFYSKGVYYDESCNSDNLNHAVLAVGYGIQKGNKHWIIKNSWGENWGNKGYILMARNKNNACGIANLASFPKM
Procedure: as §1, with “cathepsin K, acetyl-lysine-histidine-proline-lysine-amino” for “cathepsin S, acetyl-histidine-proline-valine-lysine-amino”, “Cathepsin K,” for “Cathepsin S,”, “of 3.5” for “of 0.3-3”, “substrate, acetyl-lysine-histidine-proline-lysine-amino” for “substrate, acetyl-histidine-proline-valine-lysine-amino”, “of 40” for “of 50”
(§2) Selectivity for cathepsin S in the presence of cathepsin isozymes was determined by the ratio of the cathepsin isozyme inhibition constant of a compound of the present invention to the cathepsin S inhibition constant of the same compound. Preferred compounds of the present invention selective for cathepsin S have ratios of greater than 10. More preferred compounds of the present invention selective for cathepsin S have ratios of greater than 100. Most preferred compounds of the present invention selective for cathepsin S have ratios of greater than 1000.

Cathepsin L = Cathepsin L (Homo sapiens, UniProt P07711); assay: Cathepsin L inhibition assay, fluorogenic peptide substrate (selectivity for Cat. S over Cat. L); conditions: ratio of cathepsin L inhibition constant to cathepsin S inhibition constant
Sequence of Cathepsin L (P07711 114-333, species assumed): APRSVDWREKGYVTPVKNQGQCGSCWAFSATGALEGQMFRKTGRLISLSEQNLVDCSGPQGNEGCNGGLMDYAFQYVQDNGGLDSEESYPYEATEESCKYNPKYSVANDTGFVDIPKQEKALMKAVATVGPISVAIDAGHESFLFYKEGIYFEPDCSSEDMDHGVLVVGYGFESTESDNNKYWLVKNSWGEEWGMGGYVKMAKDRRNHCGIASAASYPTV
Procedure: as §1, with “cathepsin L, acetyl-histidine-lysine-phenylalanine-lysine-amino” for “cathepsin S, acetyl-histidine-proline-valine-lysine-amino”, “Cathepsin L,” for “Cathepsin S,”, “of 0.1” for “of 0.3-3”, “substrate, acetyl-histidine-lysine-phenylalanine-lysine-amino” for “substrate, acetyl-histidine-proline-valine-lysine-amino”, “of 20” for “of 50”
as §2

Cathepsin B = Cathepsin B (Homo sapiens, UniProt P07858); assay: Cathepsin B inhibition assay, fluorogenic peptide substrate (selectivity for Cat. S over Cat. B); conditions: ratio of cathepsin B inhibition constant to cathepsin S inhibition constant
Procedure: as §1, with “B,” for “S,”, “1.5” for “0.3-3”, “[…].” for “50 μM.”
as §2

Sequence of Cathepsin S (P25774 115-331, species assumed): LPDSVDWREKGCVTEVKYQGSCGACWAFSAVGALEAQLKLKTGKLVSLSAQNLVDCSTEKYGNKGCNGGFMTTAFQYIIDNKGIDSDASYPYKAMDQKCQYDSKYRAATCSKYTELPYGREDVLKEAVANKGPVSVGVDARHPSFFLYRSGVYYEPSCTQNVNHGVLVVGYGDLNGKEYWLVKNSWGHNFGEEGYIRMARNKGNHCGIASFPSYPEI

Ki (Cathepsin S): < 100 nM | Selectivity for Cat. S over Cat. K (Cathepsin K): − (−, <10) | Selectivity for Cat. S over Cat. L (Cathepsin L): ++ (++, >100) | Selectivity for Cat. S over Cat. B (Cathepsin B): +++ (+++, >1000)
SMILES: CC(C)(C)C[C@@H](Cn1cnc2ccccc21)OC(=O)N[C@@H](CO)CN1CCc2cc(F)ccc21 [Example 12, 1-(S)-(Benzimidazol-1-ylmethyl)-3,3-dimethyl-butyl [2-(5-fluoro-2,3-dihydro-indol-1-yl)-1-(R)-hydroxymethyl-ethyl]carbamate]
